Data as given in patent US20050129680A1, “Antimicrobial activity of antibodies” (priority 2001, published 2005).
“And” between values parts separate entries of the source, which are not always exact repeats. Equal entries are not always repeated.

How the values were obtained:
[1] = tested on: horse poly-IgG; details: read-out: IC50 of H2O2 on the photo-production of H2O2 by horse poly-IgG; horse IgG 6.7 μM, H2O2 0-450 μM, near-UV
Method: Such a graph permits determination of the IC50 of H2O2 on the photo-production of H2O2 by horse poly-IgG. A solution of horse IgG (6.7 μM) was incubated with varying concentrations of H2O2 (0-450 μM) and the initial rate of H2O2 formation measured as described in FIG. 8A.

[2] = Decomposition of O3 under aqueous conditions; type: physicochemical; details: PBS pH 7.4, 22° C.
Method: The rate of decomposition of O3 under the aqueous conditions employed was measured by the following method. Ozone, produced by a passage of O2 through a Polymetrics ozonizer, was bubbled for 2 min through a phosphate buffered saline (PBS, pH 7.4) solution in a quartz cuvette (1 cm^2) at room temperature. The time-dependent change in optical density was then measured at 260 nm (ε=2,700 M^−[…]) for at least 5 half lives in a Hitachi u.v./vis spectrophotometer equipped with a thermostatted rack at 22° C. See Takeuchi et al., Anal. Chim. Acta. 230, 183 (1990). […] The sensitivity of the assay was limited by spectrophotometer accuracy to ±0.1% (˜1 μM) of the OD at t=0.

[3] = tested on: E. coli; experiment: Bactericidal assay (CFU recovery), strain not singled out; type: cell-based; details: 40 μM, white light 2.7 mW cm^−2, 1 h, PBS, 4±1° C.
Method: (§1) In a typical experiment, a culture of E. coli (in log phase growth, OD600=0.2-0.3) was repeatedly pelleted (3×3,500 rpm) and resuspended in PBS (pH 7.4). The PBS suspended cells were then added to glass vials and cooled to 4° C. […] Viability was determined by recovery of colony forming units (CFUs) on agar plates. Each experiment was performed at least in duplicate.
as §1, with “washed in PBS by pelleting” for “pelleted”, “rpm) the cells” for “rpm)”, “resuspending them” for “resuspended”

[4] = Antibody/protein UV irradiation with Amplex Red quantitative assay for hydrogen peroxide; type: biochemical; details: for reduction of ^1O2 (panel of other proteins): UV irradiation, PBS
Method: Aliquots (10 μL) were removed at timed intervals throughout the assay. H2O2 concentration was determined by the amplex red method. Each data point is reported as the mean±SEM of at least duplicate measurements: ? polyclonal (poly) immunoglobulin (Ig) G, human; O poly-IgG, horse; ? poly-IgG, sheep; ∇ monoclonal (m) IgG (WD1-6G6), murine; ? poly-IgM, human; ? mIgG (92H2), murine; ¦ β-galactosidase (β-gal); ? chick ovalbumin (OVA); ? a-lactalbumin (a-lact); ? bovine serum albumin (BSA).
Antibody/Protein Irradiation.
Quantitative Assay for Hydrogen Peroxide. An aliquot (20 μl) from the protein solution was removed and added into a well of a 96-well microtiter plate (Costar) containing reaction buffer (80 μl). Working solution (100 μl/400 μM Amplex Red reagent 1/2 units/ml horseradish peroxidase) was then added, and the plate was incubated in the dark for 30 min. The fluorescence of the well components was then measured using a CytoFluor Multiwell Plate Reader (Series 4000, PerSeptive Biosystems, Framingham, Mass.; Ex/Em: 530/580 nm). The hydrogen peroxide concentration was determined using a standard curve. All experiments were run in duplicate, and the rate is quoted as the mean of at least two measurements.
A suspension of crystals of the Fab fragment of 1D4 (2 μl) was diluted with PBS (198 μl, pH 7.4) and vortexed gently. Following centrifugation, the supernatant was removed, and the washing procedure was repeated twice further. The residual crystal suspension was then diluted into PBS, pH 7.4 (100 μl), and added into a well of a quartz ELISA plate. Following UV irradiation for 30 min, Amplex Red working solution (100 μl) was added, and the mixture was viewed on a fluorescence microscope.
Denaturation. […] The resultant solution was transferred to a glass, screw-cap vial and irradiated with UV light for 30 min. The concentration of H2O2 was determined after 30 min.

[5] = tested on: E. coli XL1-blue; experiment: Bactericidal assay (CFU recovery); type: cell-based; details: catalase 13 mU/mL
Method: (§2) In a typical experiment, a culture of E. coli (in log phase growth, OD600=0.2-0.3) was repeatedly pelleted (3×3,500 rpm) and resuspended in PBS (pH 7.4). The PBS suspended cells were then added to glass vials and cooled to 4° C. Hematoporphyrin IX (40 μM) and antibody (20 μM) were added and the vials were either placed on a light box (visible light, 2.8 mW cm^−2) or in the dark at 4° C. and incubated for 1 h. Viability was determined by recovery of colony forming units (CFUs) on agar plates. Each experiment was performed at least in duplicate.
as §2, with “washed in PBS by pelleting” for “pelleted”, “rpm) the cells” for “rpm)”, “resuspending them” for “resuspended”

OO [Clone H2O2, hydrogen peroxide]
IC50 [1]: ~225 µM and 225 µM

O=[O+][O-] [Clone O3, ozone]
half-life (t1/2) under aqueous conditions [2]: 1.1 min

CC1=C(CCC(=O)O)c2cc3[nH]c(cc4nc(cc5[nH]c(cc1n2)c(C)c5C(C)O)C(C)=C4C(C)O)c(C)c3CCC(=O)O (centres unmarked) [hematoporphyrin IX]
bactericidal activity of sensitizer alone [3]: negligible bactericidal activity

N[C@@H](Cc1c[nH]c2ccccc12)C(=O)O [tryptophan]
H2O2 produced during near-UV photo-oxidation ([4]; near-UV irradiation, 20 μM): ca. 0.5 mole equivalents

catalase
protection against the bactericidal activity of non-specific antibodies [5]: complete protection

β-galactosidase
H2O2 generated during near-UV irradiation ([4]; near-UV irradiation, 6.7 μM): 5.9 mol eq.

B1: RNase A: ribonuclease, no Trp residues, several disulfide bonds (protein, UniProt P61823 27-150, looked up)
Ribonuclease pancreatic: KETAAAKFERQHMDSSTSAASSSNYCNQMMKSRNLTKDRCKPVNTFVHESLADVQAVCSQKNVACKNGQTNCYQSYSTMSITDCRETGSSKYPNCAYKTTQANKHIIVACEGNPYVPVHFDASV
reduction of ^1O2 (panel of other proteins) [4]: do not reduce

B2: chick ovalbumin: chick-egg ovalbumin (protein, UniProt P01012 2-386, looked up)
Ovalbumin: GSIGAASMEFCFDVFKELKVHHANENIFYCPIAIMSALAMVYLGAKDSTRTQINKVVRFDKLPGFGDSIEAQCGTSVNVHSSLRDILNQITKPNDVYSFSLASRLYAEERYPILPEYLQCVKELYRGGLEPINFQTAADQARELINSWVESQTNGIIRNVLQPSSVDSQTAMVLVNAIVFKGLWEKAFKDEDTQAMPFRVTEQESKPVQMMYQIGLFRVASMASEKMKILELPFASGTMSMLVLLPDEVSGLEQLESIINFEKLTEWTSSNVMEERKIKVYLPRMKMEEKYNLTSVLMAMGITDVFSSSANLSGISSAESLKISQAVHAAHAEINEAGREVVGSAEAGVDAASVSEEFRADHPFLFCIKHIATNAVLFFGRCVSP
reduction of ^1O2 (panel of other proteins) [4]: one of the most efficient proteins
